Columns and labels:
Assay type in all cases: cell-based
BaF3_HER2WT cells = BaF3_HER2WT cells (Homo sapiens, UniProt P04626); assay: Cell growth inhibition assay (CellTiterGlo), BaF3_HER2WT; settings: 3-day treatment, CellTiterGlo, read-out: Cell growth inhibition activity, HER2 WT
BaF3_HER2YVMA cells = BaF3_HER2YVMA cells (Homo sapiens, UniProt P04626, DUP772-775, cells depend on it); assay: Cell growth inhibition assay (CellTiterGlo), BaF3_HER2YVMA; settings: 3-day treatment, CellTiterGlo, read-out: Cell growth inhibition activity, HER2 - YVMA
BaF3_EGFRWT cells = BaF3_EGFRWT cells (Homo sapiens, UniProt P00533); assay: Cell growth inhibition assay (CellTiterGlo), BaF3_EGFRWT; settings: 3-day treatment, CellTiterGlo, read-out: Cell growth inhibition activity, EGFR WT
Sequence of BaF3_EGFRWT cells (P00533 whole entry, change not shown): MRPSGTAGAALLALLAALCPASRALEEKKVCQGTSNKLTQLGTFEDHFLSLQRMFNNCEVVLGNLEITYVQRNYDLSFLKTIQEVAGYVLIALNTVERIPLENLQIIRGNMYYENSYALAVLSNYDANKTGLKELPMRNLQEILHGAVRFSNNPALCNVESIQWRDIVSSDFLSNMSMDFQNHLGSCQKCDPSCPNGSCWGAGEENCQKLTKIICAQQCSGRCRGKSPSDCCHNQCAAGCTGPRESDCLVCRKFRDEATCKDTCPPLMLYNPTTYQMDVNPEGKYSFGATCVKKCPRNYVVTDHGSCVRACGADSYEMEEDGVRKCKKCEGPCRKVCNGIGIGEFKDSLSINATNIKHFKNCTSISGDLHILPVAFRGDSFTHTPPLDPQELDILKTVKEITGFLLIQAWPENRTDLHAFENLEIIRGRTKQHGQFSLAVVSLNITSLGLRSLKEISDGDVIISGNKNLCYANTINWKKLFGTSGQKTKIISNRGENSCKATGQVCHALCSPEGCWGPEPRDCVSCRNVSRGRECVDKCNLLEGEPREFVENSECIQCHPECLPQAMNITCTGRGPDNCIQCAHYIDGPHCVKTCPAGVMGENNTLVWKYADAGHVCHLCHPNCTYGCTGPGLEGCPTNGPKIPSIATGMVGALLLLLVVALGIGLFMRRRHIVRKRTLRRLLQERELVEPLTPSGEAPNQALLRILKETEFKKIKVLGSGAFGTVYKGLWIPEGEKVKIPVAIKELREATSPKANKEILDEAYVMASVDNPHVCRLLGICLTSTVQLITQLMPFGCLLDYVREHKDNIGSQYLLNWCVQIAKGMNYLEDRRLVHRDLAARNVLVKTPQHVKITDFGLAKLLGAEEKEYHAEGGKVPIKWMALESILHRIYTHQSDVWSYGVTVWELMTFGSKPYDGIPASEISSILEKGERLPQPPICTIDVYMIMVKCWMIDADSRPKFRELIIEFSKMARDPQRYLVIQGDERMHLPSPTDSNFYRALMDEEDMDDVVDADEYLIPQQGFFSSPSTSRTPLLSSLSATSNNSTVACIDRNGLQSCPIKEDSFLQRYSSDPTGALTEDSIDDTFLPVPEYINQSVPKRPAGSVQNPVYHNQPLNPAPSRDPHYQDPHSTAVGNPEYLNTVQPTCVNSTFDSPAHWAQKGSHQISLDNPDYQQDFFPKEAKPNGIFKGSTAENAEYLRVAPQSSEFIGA

Sequence of BaF3_HER2YVMA cells (P04626 with tags, fused parts or gaps DUP772-775): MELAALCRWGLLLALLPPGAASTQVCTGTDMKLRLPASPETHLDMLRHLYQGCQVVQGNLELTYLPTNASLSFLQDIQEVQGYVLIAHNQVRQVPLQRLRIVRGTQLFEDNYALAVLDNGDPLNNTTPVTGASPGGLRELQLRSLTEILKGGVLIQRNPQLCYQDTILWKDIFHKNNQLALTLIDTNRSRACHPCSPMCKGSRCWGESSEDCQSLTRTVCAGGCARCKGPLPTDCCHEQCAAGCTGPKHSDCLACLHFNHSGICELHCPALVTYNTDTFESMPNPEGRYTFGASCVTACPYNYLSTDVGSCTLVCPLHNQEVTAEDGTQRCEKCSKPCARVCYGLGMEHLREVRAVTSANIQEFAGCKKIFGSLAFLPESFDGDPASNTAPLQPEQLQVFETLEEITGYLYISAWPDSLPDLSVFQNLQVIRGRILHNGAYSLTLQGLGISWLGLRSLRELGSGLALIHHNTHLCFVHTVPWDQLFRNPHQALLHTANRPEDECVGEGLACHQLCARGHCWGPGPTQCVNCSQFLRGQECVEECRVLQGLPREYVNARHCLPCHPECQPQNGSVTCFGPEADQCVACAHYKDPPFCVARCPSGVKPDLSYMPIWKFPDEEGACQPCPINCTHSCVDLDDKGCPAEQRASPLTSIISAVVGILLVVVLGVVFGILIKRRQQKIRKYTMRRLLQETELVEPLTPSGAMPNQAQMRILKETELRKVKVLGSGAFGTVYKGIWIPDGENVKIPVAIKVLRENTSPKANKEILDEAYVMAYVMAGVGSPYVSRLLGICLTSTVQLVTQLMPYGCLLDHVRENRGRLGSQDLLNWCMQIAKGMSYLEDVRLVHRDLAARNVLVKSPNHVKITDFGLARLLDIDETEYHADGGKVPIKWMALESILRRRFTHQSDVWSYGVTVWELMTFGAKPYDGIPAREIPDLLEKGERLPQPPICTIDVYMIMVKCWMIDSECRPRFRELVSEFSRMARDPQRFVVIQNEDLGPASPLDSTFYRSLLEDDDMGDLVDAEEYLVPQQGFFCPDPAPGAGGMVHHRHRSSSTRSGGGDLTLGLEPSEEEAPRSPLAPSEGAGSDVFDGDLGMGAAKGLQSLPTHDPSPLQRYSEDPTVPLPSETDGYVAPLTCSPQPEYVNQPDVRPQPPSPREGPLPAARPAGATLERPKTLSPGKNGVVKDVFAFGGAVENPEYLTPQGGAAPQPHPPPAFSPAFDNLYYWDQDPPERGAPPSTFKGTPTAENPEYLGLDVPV
Sequence of BaF3_HER2WT cells (P04626 whole entry, change not shown): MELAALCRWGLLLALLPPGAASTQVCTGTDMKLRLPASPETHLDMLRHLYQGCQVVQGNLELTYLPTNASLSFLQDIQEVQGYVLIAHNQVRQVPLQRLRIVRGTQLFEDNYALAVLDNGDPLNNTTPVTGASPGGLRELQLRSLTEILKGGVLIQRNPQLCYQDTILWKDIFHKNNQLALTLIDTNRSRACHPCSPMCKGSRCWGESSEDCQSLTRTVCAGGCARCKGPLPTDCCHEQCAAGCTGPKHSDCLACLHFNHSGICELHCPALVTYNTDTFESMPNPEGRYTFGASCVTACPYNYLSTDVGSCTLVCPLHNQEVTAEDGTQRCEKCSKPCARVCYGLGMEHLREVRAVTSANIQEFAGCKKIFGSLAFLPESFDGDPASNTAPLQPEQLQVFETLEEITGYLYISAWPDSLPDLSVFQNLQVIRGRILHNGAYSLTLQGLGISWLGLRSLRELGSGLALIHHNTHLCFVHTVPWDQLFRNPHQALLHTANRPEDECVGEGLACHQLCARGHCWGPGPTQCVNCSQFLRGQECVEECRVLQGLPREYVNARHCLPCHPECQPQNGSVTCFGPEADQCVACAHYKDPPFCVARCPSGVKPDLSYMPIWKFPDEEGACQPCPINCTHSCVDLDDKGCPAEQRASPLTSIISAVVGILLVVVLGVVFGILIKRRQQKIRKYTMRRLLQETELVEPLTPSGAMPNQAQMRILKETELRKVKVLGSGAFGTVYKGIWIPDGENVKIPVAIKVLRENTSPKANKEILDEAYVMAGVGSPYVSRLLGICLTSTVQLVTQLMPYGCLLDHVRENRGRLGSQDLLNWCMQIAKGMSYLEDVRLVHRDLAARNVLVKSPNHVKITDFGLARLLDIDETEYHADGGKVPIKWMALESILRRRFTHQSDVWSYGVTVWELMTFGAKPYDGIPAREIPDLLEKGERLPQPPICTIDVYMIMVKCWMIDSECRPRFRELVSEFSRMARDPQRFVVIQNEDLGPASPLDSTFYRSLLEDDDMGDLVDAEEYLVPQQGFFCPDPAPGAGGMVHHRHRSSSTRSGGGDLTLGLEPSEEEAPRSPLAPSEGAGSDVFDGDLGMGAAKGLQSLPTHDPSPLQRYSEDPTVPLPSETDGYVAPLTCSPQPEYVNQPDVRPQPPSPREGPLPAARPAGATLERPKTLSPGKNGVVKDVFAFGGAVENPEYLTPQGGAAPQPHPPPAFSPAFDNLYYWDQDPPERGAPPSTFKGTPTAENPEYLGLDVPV

| GI50 (BaF3_HER2WT cells) | GI50 (BaF3_HER2YVMA cells) | GI50 (BaF3_EGFRWT cells) | SMILES |
| --- | --- | --- | --- |
| < 200 nM | < 200 nM | 1500 to 5000 nM | Cc1cc(Nc2ncnn3ccc(C4CCN(C(=O)/C=C/CN5CC6COCC6C5)CC4)c23)ccc1Oc1ccn2ncnc2c1 (stereo not drawn) [Example 119, E-1-(4-(4-((4-([1,2,4]triazolo[1,5-a]218midazol-7-yloxy)-3-methylphenyl)amino)pyrrolo[2,1-f][1,2,4]triazin-5-yl)piperidin-1-yl)-4-(tetrahydro-1H-furo[3,4-c]pyrrol-5(3H)-yl)but-2-en-1-one] |
| < 200 nM | < 200 nM | 1500 to 5000 nM | Cc1cc(Nc2ncnn3ccc(C4CCN(C(=O)/C=C/CN5CCC6(COC6)C5)CC4)c23)ccc1Oc1ccn2ncnc2c1 [Example 120, E-1-(4-(4-((4-([1,2,4]triazolo[1,5-a]218midazol-7-yloxy)-3-methylphenyl)amino)pyrrolo[2,1-f][1,2,4]triazin-5-yl)piperidin-1-yl)-4-(2-oxa-6-azaspiro[3.4]octan-6-yl)but-2-en-1-one] |
| < 200 nM | < 200 nM | 500 to 1500 nM | C=CC(=O)N1CCN(c2ccn3ncnc(Nc4ccc(Oc5ccc6c(c5)ncn6C)c(C)c4)c23)CC1 [Example 121, 1-(4-(4-((3-methyl-4-((1-methyl-1H-benzo[d]imidazol-5-yl)oxy)phenyl)amino)pyrrolo[2,1-f][1,2,4]triazin-5-yl)piperazin-1-yl)prop-2-en-1-one] |
| < 200 nM | < 200 nM | 1500 to 5000 nM | Cc1cc(Nc2ncnn3ccc(C4CCN(C(=O)/C=C/CN5CCC6(COC6)C5)CC4)c23)ccc1Oc1ccc2c(c1)ncn2C [Example 129, (E)-1-(4-(4-((3-methyl-4-((1-methyl-1H-benzo[d]imidazol-5-yl)-oxy)phenyl)amino)-pyrrolo[2,1-f][1,2,4]triazin-5-yl)piperidin-1-yl)-4-(2-oxa-6-azaspiro[3.4]octan-6-yl)but-2-en-1-one] |
| < 200 nM | < 200 nM | 1500 to 5000 nM | Cc1cc(Nc2ncnn3ccc(C4CCN(C(=O)/C=C/CN(C)C)CC4)c23)ccc1Oc1ccc2c(c1)ncn2C [Example 133, (E)-4-(dimethylamino)-1-(4-(4-((3-methyl-4-((1-methyl-1H-benzo[d]234midazole-5-yl)oxy)phenyl)amino)pyrrolo[2,1-f][1,2,4]triazin-5-yl)piperidin-1-yl)but-2-en-1-one] |
| 200 to 500 nM | 1500 to 5000 nM | 1500 to 5000 nM | Cc1cc(Nc2ncnn3ccc(C4CN(C(=O)/C=C/CN(C)C)C4)c23)ccc1Oc1ccn2cnnc2c1 [Example 134, (E)-1-(3-(4-((4-([1,2,4]triazolo[4,3-a]pyridin-7-yloxy)-3-methylphenyl)amino)pyrrolo[2,1-f][1,2,4]triazin-5-yl)azetidin-1-yl)-4-(dimethylamino)but-2-en-1-one] |
| 200 to 500 nM | 500 to 1500 nM | 1500 to 5000 nM | C=CC(=O)N1C[C@H]2C[C@@H]1C[C@@H]2c1ccn2ncnc(Nc3ccc(Oc4ccn5ncnc5c4)c(C)c3)c12 [Example 141, 1-[(1S,4S,5S)-5-{4-[(3-methyl-4-{[1,2,4]triazolo[1,5-a]pyridin-7-yloxy}phenyl)amino]pyrrolo[2,1-f][1,2,4]triazin-5-yl}-2-azabicyclo[2.2.1]heptan-2-yl]prop-2-en-1-one] |
| 1500 to 5000 nM | 1500 to 5000 nM | 1500 to 5000 nM | Cc1cc(Nc2ncnn3ccc(C4CCN(C(=O)/C=C/C(=O)O)CC4)c23)ccc1Oc1ccn2ncnc2c1 [Example 142, (E)-4-(4-(4-((4-([1,2,4]triazolo[1,5-a]pyridin-7-yloxy)-3-methylphenyl)amino)pyrrolo[2,1-f][1,2,4]triazin-5-yl)piperidin-1-yl)-4-oxobut-2-enoic acid] |
| 500 to 1500 nM | 1500 to 5000 nM | 1500 to 5000 nM | Cc1cc(Nc2ncnn3ccc(C4CCN(C(=O)/C=C/CN)CC4)c23)ccc1Oc1ccn2ncnc2c1 [Example 150, (E)-1-(4-(4-((4-([1,2,4]triazolo[1,5-a]pyridin-7-yloxy)-3-methylphenyl)amino)pyrrolo[2,1-f][1,2,4]triazin-5-yl)piperidin-1-yl)-4-aminobut-2-en-1-one] |
| < 200 nM | < 200 nM | 1500 to 5000 nM | CNC/C=C/C(=O)N1CC(c2ccn3ncnc(Nc4ccc(Oc5ccn6ncnc6c5)c(C)c4)c23)C1 [Example 151, (E)-1-(3-(4-((4-([1,2,4]triazolo[1,5-a]pyridin-7-yloxy)-3-methylphenyl)amino)pyrrolo[2,1-f][1,2,4]triazin-5-yl)azetidin-1-yl)-4-(methylamino)but-2-en-1-one] |
| < 200 nM | < 200 nM | 1500 to 5000 nM | Cc1cc(Nc2ncnn3cc(F)c(C4CCN(C(=O)/C=C/CN(C)C)CC4)c23)ccc1Oc1ccn2ncnc2c1 [Example 152, (E)-1-(4-(4-((4-([1,2,4]triazolo[1,5-a]pyridin-7-yloxy)-3-methylphenyl)amino)-6-fluoropyrrolo[2,1-f][1,2,4]triazin-5-yl)piperidin-1-yl)-4-(dimethylamino)but-2-en-1-one] |
| 1500 to 5000 nM | 1500 to 5000 nM | 1500 to 5000 nM | CNC/C=C/C(=O)N1CC(c2ccn3ncnc(Nc4ccc(Oc5ccc6c(c5)ncn6C)c(C)c4)c23)C1 [Example 153, (E)-1-(3-(4-((3-methyl-4-((1-methyl-1H-benzo[d]imidazol-5-yl)oxy)phenyl)amino)pyrrolo[2,1-f][1,2,4]triazin-5-yl)azetidin-1-yl)-4-(methylamino)but-2-en-1-one] |
| < 200 nM | < 200 nM | 1500 to 5000 nM | Cc1cc(Nc2ncnn3ccc(C4CCN(C(=O)/C=C/CO)CC4)c23)ccc1Oc1ccn2ncnc2c1 [Example 154, (E)-1-(4-(4-((4-([1,2,4]triazolo[1,5-a]pyridin-7-yloxy)-3-methylphenyl)amino)pyrrolo[2,1-f][1,2,4]triazin-5-yl)piperidin-1-yl)-4-hydroxybut-2-en-1-one] |
| < 200 nM | < 200 nM | 1500 to 5000 nM | Cc1cc(Nc2ncnn3ccc(C4CN(C(=O)/C=C/CN(C)C)C4)c23)ccc1Oc1ccn2ccnc2c1 [Example 157, (E)-4-(dimethylamino)-1-(3-(4-((4-(imidazo[1,2-a]pyridin-7-yloxy)-3-methylphenyl)amino)pyrrolo[2,1-f][1,2,4]triazin-5-yl)azetidin-1-yl)but-2-en-1-one] |
| < 200 nM | < 200 nM | 500 to 1500 nM | Cc1cc(Nc2ncnn3ccc(C4CN(C(=O)/C=C/CN(C)C)C4)c23)ccc1Oc1cc2ncnn2cn1 [Example 158, (E)-1-(3-(4-((4-([1,2,4]triazolo[1,5-c]pyrimidin-7-yloxy)-3-methylphenyl)amino)pyrrolo[2,1-f][1,2,4]triazin-5-yl)azetidin-1-yl)-4-(dimethylamino)but-2-en-1-one] |
| < 200 nM | < 200 nM | 1500 to 5000 nM | Cc1cc(Nc2ncnn3ccc(C4CN(C(=O)/C=C/C56CCCN5CCC6)C4)c23)ccc1Oc1ccn2ncnc2c1 [Example 159, (E)-1-(3-(4-((4-([1,2,4]triazolo[1,5-a]pyridin-7-yloxy)-3-methylphenyl)amino)pyrrolo[2,1-f][1,2,4]triazin-5-yl)azetidin-1-yl)-3-(tetrahydro-1H-pyrrolizin-7a(5H)-yl)prop-2-en-1-one] |
| < 200 nM | < 200 nM | 1500 to 5000 nM | Cc1cc(Nc2ncnn3ccc(C4CN(C(=O)/C=C\C56CCCN5CCC6)C4)c23)ccc1Oc1ccn2ncnc2c1 [Example 160, (Z)-1-(3-(4-((4-([1,2,4]triazolo[1,5-a]pyridin-7-yloxy)-3-methylphenyl)amino)pyrrolo[2,1-f][1,2,4]triazin-5-yl)azetidin-1-yl)-3-(tetrahydro-1H-pyrrolizin-7a(5H)-yl)prop-2-en-1-one] |
| < 200 nM | < 200 nM | 1500 to 5000 nM | Cc1cc(Nc2ncnn3ccc(C4CN(C(=O)/C=C/CN5CC(F)C5)C4)c23)ccc1Oc1ccc2c(c1)ncn2C [Example 161, (E)-4-(3-fluoroazetidin-1-yl)-1-(3-(4-((3-methyl-4-((1-methyl-1H-benzo[d]imidazol-5-yl)oxy)phenyl)amino)pyrrolo[2,1-f][1,2,4]triazin-5-yl)azetidin-1-yl)but-2-en-1-one] |
| 200 to 500 nM | 500 to 1500 nM | 1500 to 5000 nM | Cc1cc(Nc2ncnn3ccc(C4CCN(C(=O)/C=C/CN5CC(F)C5)CC4)c23)ccc1Oc1ccc2c(c1)ncn2C [Example 162, (E)-4-(3-fluoroazetidin-1-yl)-1-(4-(4-((3-methyl-4-((1-methyl-1H-benzo[d]imidazol-5-yl)oxy)phenyl)amino)pyrrolo[2,1-f][1,2,4]triazin-5-yl)piperidin-1-yl)but-2-en-1-one] |
| < 200 nM | < 200 nM | 1500 to 5000 nM | Cc1cc(Nc2ncnn3ccc(C4CCN(C(=O)/C=C/CN5CC(F)C5)CC4)c23)ccc1Oc1ccn2ncnc2c1 [Example 163, (E)-1-(4-(4-((4-([1,2,4]triazolo[1,5-a]pyridin-7-yloxy)-3-methylphenyl)amino)pyrrolo[2,1-f][1,2,4]triazin-5-yl)piperidin-1-yl)-4-(3-fluoroazetidin-1-yl)but-2-en-1-one] |
| < 200 nM | < 200 nM | 1500 to 5000 nM | Cc1cc(Nc2ncnn3ccc(C4CCN(C(=O)/C=C/CN5CCC(F)C5)CC4)c23)ccc1Oc1ccn2ncnc2c1 (stereo not drawn) [Example 164, (E)-1-(4-(4-((4-([1,2,4]triazolo[1,5-a]pyridin-7-yloxy)-3-methylphenyl)amino)pyrrolo[2,1-f][1,2,4]triazin-5-yl)piperidin-1-yl)-4-(3-fluoropyrrolidin-1-yl)but-2-en-1-one] |
